{"source": "patent US20230250083A1", "about": "“CRYSTALS” (NIPPON SHINYAKU CO., LTD., priority 2017, published 2023)", "type_in_all_cases": "physicochemical", "key": {"[1]": {"assay": "Crystallization experiments using various solvents, overall outcome", "settings": "operation procedures 1 to 4, Tables 1 to 3", "method": "Each of various solvents was added to the Form-I crystal of the present invention (several mg), crystals of the compound A were precipitated according to the following operation procedures, and the crystal form of the precipitated crystals was confirmed. The results of the operation procedures 1 to 3 are shown in Table 1 and Table 2, and the results of the operation procedure 4 are shown in Table 3. The symbol “-” in Table 1 to Table 3 means that no precipitate was obtained."}, "[2]": {"assay": "Solvent-mediated transformation test", "settings": "for Crystal form after 1 day / Crystal form after 5 days: stirred at room temperature", "method": "Each solvent was added to the Form-I crystal of the compound A, and the mixture was stirred at room temperature for 24 hours, and then, insolubles was filtered to prepare a saturated solution. Mixed crystals (about 10 mg) in which the Form-I crystal and the Form-II crystal were mixed at 1:1 were added to each solution, and the resultant mixture was stirred at room temperature for 5 days. Formed crystals were collected through filtration, and the crystal form thereof was confirmed."}, "[3]": {"assay": "Stability test (sealed glass bottle, 90° C.)", "method": "The Form-II crystal of the compound A was put in a glass bottle, and the glass bottle was tightly sealed and stored at 90° C. The sample was taken out after 1 day, 3 days, and 7 days, and was dissolved in methanol at a concentration of 1 mg/mL. Each solution was subjected to measurement of analogs by HPLC. As for the crystals after 7 days, the crystal form was confirmed."}, "[4]": {"settings": "90° C., after 1 day, tightly sealed glass bottle"}, "[5]": {"settings": "90° C., after 3 days, tightly sealed glass bottle"}, "[6]": {"settings": "90° C., after 7 days, tightly sealed glass bottle"}, "[7]": {"settings": "acetone:water 20:80 saturated with Form-I"}, "[8]": {"settings": "acetonitrile saturated with Form-I"}}}
{"smiles": "C[C@H](Nc1cc(-c2cnn(C)c2)cc(Nc2cnccn2)n1)c1ccc(F)cc1.O=C(O)/C=C\\C(=O)O", "note": "[Form-I crystal of the present invention]", "values": [{"measurement": "crystallization from various solvents (which form crystallizes)", "setting": "[1]", "value": "preferentially crystallized"}, {"measurement": "thermodynamic stability in solvent", "setting": "[2]; acetonitrile, ethyl acetate, water-containing acetone at room temperature", "value": "thermodynamically stable"}]}
{"smiles": "C[C@H](Nc1cc(-c2cnn(C)c2)cc(Nc2cnccn2)n1)c1ccc(F)cc1.O=C(O)/C=C\\C(=O)O", "note": "[Form-II]", "values": [{"measurement": "crystallization from various solvents (which form crystallizes)", "setting": "[1]; listed as Form-II crystal of the present invention", "value": "crystallized only in water-containing systems"}, {"measurement": "Appearance", "setting": "[3]; [4]", "value": "no change"}, {"measurement": "HPLC area (%)", "setting": "[3]; [4]", "value": 99.7, "unit": "%"}, {"measurement": "Appearance", "setting": "[3]; [5]", "value": "no change"}, {"measurement": "HPLC area (%)", "setting": "[3]; [5]", "value": 99.8, "unit": "%"}, {"measurement": "Appearance", "setting": "[3]; [6]", "value": "no change"}, {"measurement": "Crystal form after 7 days", "setting": "[3]; [6]", "value": "Form-II"}, {"measurement": "HPLC area (%)", "setting": "[3]; [6]", "value": 99.6, "unit": "%"}, {"measurement": "Appearance", "setting": "[3]; Before storage", "value": "pale yellow crystal"}, {"measurement": "HPLC area (%)", "setting": "[3]; Before storage", "value": 99.7, "unit": "%"}]}
{"smiles": "C[C@H](Nc1cc(-c2cnn(C)c2)cc(Nc2cnccn2)n1)c1ccc(F)cc1.O=C(O)/C=C\\C(=O)O", "note": "[Form-I + Form-II (1:1)]", "values": [{"measurement": "Crystal form after 1 day", "setting": "[2]; [7]", "value": "Form-I"}, {"measurement": "Crystal form after 5 days", "setting": "[2]; [7]", "value": "Form-I"}, {"measurement": "Crystal form after 1 day", "setting": "[2]; [8]", "value": "Form-I"}, {"measurement": "Crystal form after 5 days", "setting": "[2]; [8]", "value": "Form-I"}, {"measurement": "crystal form transformation of mixed crystals", "setting": "[2]; after 5 days, in acetonitrile, ethyl acetate, and water-containing acetone at room temperature", "value": "all transformed to the Form-I crystal"}, {"measurement": "Crystal form after 5 days", "setting": "[2]; ethyl acetate saturated with Form-I", "value": "Form-I"}]}
